Read-outs that look alike come from different tables or passages of the source.
Experiments:
JIMT-1 cells = assay: In vitro cytotoxicity of free payloads (resazurin cell viability, 3 days); format: cell-based, human; details: for IC50 JIMT-1 (HER2 1+): free payload, 3 days incubation, 10 pM to 100 nM; for IC50: Homo sapiens, JIMT-1, 72 h, read-out: IC50 JIMT-1 (HER2 1+)
Method: (§1) SK-OV-3, NCI-N87, JIMT-1 and MDA-MB-231 cells were plated in 96-well plates (5000 cells/well) in RPMI-1640 GlutaMAX (Invitrogen) supplemented with 10% fetal bovine serum (FBS) (Invitrogen, 150 μL/well) and incubated overnight in a humidified atmosphere at 37° C. and 5% CO2. Compounds 6a, 6b, 6c, 6d and 6e were added in triplo in a square root of 10-fold dilution series to obtain a final concentration ranging from 1 pM to 10 nM (for SK-OV-3 and NCI-N87) or 10 pM to 100 nM (for JIMT-1 and MDA-MB-231) and a final volume of 200 μL/well. The cells were incubated for 3 days in a humidified atmosphere at 37° C. and 5% CO2. The culture medium was replaced by 0.01 mg/mL resazurin (Sigma Aldrich) in RPMI-1640 GlutaMAX supplemented with 10% FBS (200 μL/well). After 4 hours in a humidified atmosphere at 37° C. and 5% CO2 the fluorescence was detected with a fluorescence plate reader (Infinite® M1000 Tecan) at 560 nm excitation and 590 nm emission. The relative fluorescent units (RFU) were normalized to cell viability percentage by setting wells without cells at 0% viability and wells with untreated cells at 100% viability. Viability was plotted using Graphpad prism software (see FIG. 20).

SK-OV-3 cells = assay: as above; format: cell-based; details: Homo sapiens, SK-OV-3, 72 h, read-out: IC50 SK-OV-3 (HER2 3+)
Method: as §1

MDA-MB-231 cells = assay: as above; format: cell-based; details: for IC50 MDA-MB-231 (HER2−): free payload, 3 days incubation, 10 pM to 100 nM; for IC50: Homo sapiens, MDA-MB-231, 72 h, read-out: IC50 MDA-MB-231 (HER2−)
Method: as §1

NCI-N87 cells = assay: as above; format: cell-based; details: Homo sapiens, NCI-N87, 72 h, read-out: IC50 NCI-N87 (HER2 3+)
Method: as §1, with “Compounds 6a, 6b, 6c, 6d and 6e were added in triplo in a square root of 10-fold dilution series to obtain a final concentration ranging from 1 pM to 10 nM (for SK-OV-3 and NCI-N87) or 10 pM to 100 nM (for JIMT-1 and MDA-MB-231) and a final volume of 200 μL/well.” left out

[1] = more potent than doxorubicin; cited from earlier work
preclinical models = details: cited from earlier work
[2] = free payload, 3 days incubation, 1 pM to 10 nM

Row | SMILES | IC50 JIMT-1 (HER2 1+) (JIMT-1 cells) | IC50 (SK-OV-3 cells; [2]) [nM] | IC50 MDA-MB-231 (HER2−) (MDA-MB-231 cells) | IC50 (NCI-N87 cells; [2]) [nM] | IC50 (SK-OV-3 cells) [nM] | IC50 (JIMT-1 cells) [nM] | IC50 (MDA-MB-231 cells) [nM] | IC50 (NCI-N87 cells) [nM] | potency relative to doxorubicin [1] [×] | MED (preclinical models) [mg/kg]
1 | COc1cccc2c1C(=O)c1c(O)c3c(c(O)c1C2=O)C[C@@](O)(C(=O)CO)C[C@@H]3O[C@H]1C[C@H]2[C@H](O[C@@H]3[C@@H](OC)OCCN32)[C@H](C)O1 [Compound 6a, reference compound] | no accurate IC50 value could be calculated | 0.028 | no accurate IC50 value could be calculated | 0.085 | – | – | – | – | – | –
2 | COc1cccc2c1C(=O)c1c(O)c3c(c(O)c1C2=O)C[C@@](O)(C(=O)CO)C[C@@H]3O[C@H]1C[C@H]2[C@H](O[C@@H]3[C@@H](OCCN=[N+]=[N-])OCCN32)[C@H](C)O1 [Compound 6b] | no accurate IC50 value could be calculated | – | no accurate IC50 value could be calculated | – | 0.099 | – | – | – | – | –
3 | COc1cccc2c1C(=O)c1c(O)c3c(c(O)c1C2=O)C[C@@](O)(C(=O)CO)C[C@@H]3O[C@H]1C[C@H]2[C@H](O[C@@H]3[C@@H](OC(C)C)OCCN32)[C@H](C)O1 [Compound 6c] | – | – | – | – | 0.187 | 0.159 | 0.174 | 0.416 | – | –
4 | COc1cccc2c1C(=O)c1c(O)c3c(c(O)c1C2=O)C[C@@](O)(C(=O)CO)C[C@@H]3O[C@H]1C[C@H]2[C@H](O[C@@H]3[C@@H](OCc4ccccc4)OCCN32)[C@H](C)O1 [Compound 6d] | – | – | – | – | 0.217 | 0.259 | 0.169 | 0.339 | – | –
5 | COc1cccc2c1C(=O)c1c(O)c3c(c(O)c1C2=O)C[C@@](O)(C(=O)CO)C[C@@H]3O[C@H]1C[C@H]2[C@H](O[C@@H]3[C@@H](OCc4ccc(N=[N+]=[N-])cc4)OCCN32)[C@H](C)O1 [Compound 6e] | – | – | – | – | 0.845 | 0.52 | 0.705 | 0.795 | – | –
6 | COc1cccc2c1C(=O)c1c(O)c3c(c(O)c1C2=O)C[C@@](O)(C(=O)CO)C[C@@H]3O[C@H]1C[C@H]2[C@H](O[C@@H]3[C@@H](OC)OCCN32)[C@H](C)O1 [PNU-159,682] | – | – | – | – | – | – | – | – | > 1000 | 0.033

— patent US20250312474A1, “ANTHRACYCLINS AND CONJUGATES THEREOF” (priority 2022, published 2025)
